Drawing on patent US8106072B2, “7- (4-substituted-3-cyclopropylaminomethyl-1-pyrrolidinyl) quinolonecarboxylic acid derivative” (Kyorin Pharmaceutical Co., Ltd., priority 2003, dated 2012), this text covers MIC for nine compounds.

Holding throughout (experiment): In vitro antibacterial activity (MIC, agar plate dilution)
Holding throughout (type): cell-based

The subject of one assay is S. pneumoniae Type III. The following applies: Streptococcus pneumoniae, Muller-Hinton agar supplemented with 5% defibrinated horse blood. The method, then:
(§1) The in-vitro antibacterial activity of the compound of the present invention, as measured by the minimum inhibitory concentration (MIC), was determined by the agar plate dilution technique using Mueller-Hinton agar medium. The technique met the criteria specified by the National Committee for Clinical Laboratory Standard (1997) [NCCLS. Methods for Dilution Antibacterial Susceptibility Tests for Bacteria that grow Aerobically—Forth Edition: Approved Standard m7-A4. NCCLS, Villanova, Pa.]. For Streptococcus pneumonia and Enterococcus, the MIC values were determined by using Muller-Hinton agar supplemented with 5% defibrinated horse blood.

The test system of the next assay is S. aureus MR5867. To be noted: Staphylococcus aureus, S. aureus MR5867 (methicillin-resistant S. aureus), Mueller-Hinton agar. The protocol: as §1
Another assay relates to S. aureus Smith. To be noted: Staphylococcus aureus, Mueller-Hinton agar. The protocol: as §1
A further assay relates to E. faecalis IID682. To be noted: Enterococcus faecalis, Muller-Hinton agar supplemented with 5% defibrinated horse blood. The method, then: as §1
Another assay concerns S. aureus MS16401. To be noted: Staphylococcus aureus, S. aureus MS16401 (quinolone-resistant S. aureus), Mueller-Hinton agar. The protocol:
as §1

≈ marks a conversion by molar mass, not a printed value.

As usually defined, the MIC is the smallest concentration in the dilution series that meets the test's criterion for growth inhibition. Regarding `COc1c(N2C[C@H](CNC3CC3)[C@H](F)C2)c(F)cc2c(=O)c(C(=O)O)cn(C3CC3)c12` [Example 1, 1-cyclopropyl-7-[(3S,4S)-3-cyclopropylaminomethyl-4-fluoro-1-pyrrolidinyl]-6-fluoro-1,4-dihydro-8-methoxy-4-oxo-3-quinolinecarboxylic acid], the MIC in the assay on S. pneumoniae Type III is at most 8 µg/mL; with S. aureus MR5867 it was 8 µg/mL (≈ 18.5 µM); in the assay with S. aureus Smith, 8 µg/mL (≈ 18.5 µM); in the assay with E. faecalis IID682, 63 µg/mL (≈ 145 µM); against S. aureus MS16401, 4 µg/mL (≈ 9.23 µM).
With `COc1c(N2C[C@H](CNC3CC3)[C@H](F)C2)ccc2c(=O)c(C(=O)O)cn(C3CC3)c12` [Example 2, 1-cyclopropyl-7-[(3S,4S)-3-cyclopropylaminomethyl-4-fluoro-1-pyrrolidinyl]-1,4-dihydro-8-methoxy-4-oxo-3-quinolinecarboxylic acid], the MIC against S. pneumoniae Type III was 31 µg/mL (≈ 74.6 µM); with S. aureus MR5867, 16 µg/mL (≈ 38.5 µM); in the assay with S. aureus Smith it was 8 µg/mL (≈ 19.3 µM); in the assay on E. faecalis IID682, 125 µg/mL (≈ 301 µM); against S. aureus MS16401, 31 µg/mL (≈ 74.6 µM).
With `O=C(O)c1cn(C2CC2)c2c(OC(F)F)c(N3C[C@H](CNC4CC4)[C@H](F)C3)ccc2c1=O` [Example 4, 1-cyclopropyl-7-[(3S,4S)-3-cyclopropylaminomethyl-4-fluoro-1-pyrrolidinyl]-8-difluoromethoxy-1,4-dihydro-4-oxo-3-quinolinecarboxylic acid], the MIC was 63 µg/mL (≈ 140 µM) in the assay on S. pneumoniae Type III; 31 µg/mL (≈ 68.7 µM) in the assay on S. aureus MR5867; 16 µg/mL (≈ 35.4 µM) in the assay on S. aureus Smith; 500 µg/mL (≈ 1110 µM) against E. faecalis IID682; 63 µg/mL (≈ 140 µM) against S. aureus MS16401.
For the compound `COc1c(N2C[C@@H](CNC3CC3)[C@H](C(F)(F)F)C2)c(F)cc2c(=O)c(C(=O)O)cn(C3CC3)c12` (relative stereo) [Example 6, 1-cyclopropyl-7-(trans-3-cyclopropylaminomethyl-4-trifluoromethyl-1-pyrrolidinyl)-6-fluoro-1,4-dihydro-8-methoxy-4-oxo-3-quinolinecarboxylic acid], the MIC was found to be 63 µg/mL (≈ 130 µM) in the assay with S. pneumoniae Type III; 8 µg/mL (≈ 16.5 µM) with S. aureus MR5867; 31 µg/mL (≈ 64.1 µM) in the assay with S. aureus Smith; 250 µg/mL (≈ 517 µM) against E. faecalis IID682; 63 µg/mL (≈ 130 µM) against S. aureus MS16401.
On to `O=C(O)c1cn(C2CC2)c2c(OC(F)F)c(N3C[C@H](CNC4CC4)[C@H](F)C3)c(F)cc2c1=O` [Example 3, 1-cyclopropyl-7-[(3S,4S)-3-cyclopropylaminomethyl-4-fluoro-1-pyrrolidinyl]-6-fluoro-8-difluoromethoxy-1,4-dihydro-4-oxo-3-quinolinecarboxylic acid], for which the MIC in the assay on S. pneumoniae Type III turned out to be 16 µg/mL (≈ 34.1 µM); against S. aureus MR5867, 8 µg/mL (≈ 17 µM); in the assay with S. aureus Smith, 8 µg/mL (≈ 17 µM); against E. faecalis IID682 it was 125 µg/mL (≈ 266 µM); against S. aureus MS16401, 8 µg/mL (≈ 17 µM).
For `COc1c(N2C[C@H](CNC3CC3)[C@@H](F)C2)c(F)cc2c(=O)c(C(=O)O)cn(C3CC3)c12` [Example 9, 1-cyclopropyl-7-[(3S,4R)-3-cyclopropylaminomethyl-4-fluoro-1-pyrrolidinyl]-6-fluoro-1,4-dihydro-8-methoxy-4-oxo-3-quinolinecarboxylic acid], the MIC against S. pneumoniae Type III was at most 8 µg/mL; against S. aureus MR5867, at most 8 µg/mL; with S. aureus Smith, at most 8 µg/mL; against E. faecalis IID682, 63 µg/mL (≈ 145 µM); with S. aureus MS16401, 16 µg/mL (≈ 36.9 µM).
Consider `COc1c(N2C[C@@H](CNC3CC3)[C@H](C)C2)c(F)cc2c(=O)c(C(=O)O)cn(C3CC3)c12` (relative stereo) [Example 5, 1-cyclopropyl-7-(trans-3-cyclopropylaminomethyl-4-methyl-1-pyrrolidinyl)-6-fluoro-1,4-dihydro-8-methoxy-4-oxo-3-quinolinecarboxylic acid], for which the MIC against S. pneumoniae Type III worked out at 31 µg/mL (≈ 72.2 µM); with S. aureus MR5867 it was 8 µg/mL (≈ 18.6 µM); against S. aureus Smith, 8 µg/mL (≈ 18.6 µM); in the assay with E. faecalis IID682, 125 µg/mL (≈ 291 µM); against S. aureus MS16401, 16 µg/mL (≈ 37.3 µM).
`COc1c(N2C[C@@H](CNC3CC3)[C@H](C)C2)ccc2c(=O)c(C(=O)O)cn(C3CC3)c12` [Example 8, 1-cyclopropyl-7-[(3R,4S)-3-cyclopropylaminomethyl-4-methyl-1-pyrrolidinyl]-1,4-dihydro-8-methoxy-4-oxo-3-quinolinecarboxylic acid]: the MIC against S. pneumoniae Type III was found to be 125 µg/mL (≈ 304 µM); against S. aureus MR5867, 31 µg/mL (≈ 75.3 µM); in the assay on S. aureus Smith, 31 µg/mL (≈ 75.3 µM); in the assay with E. faecalis IID682, 500 µg/mL (≈ 1220 µM); with S. aureus MS16401, 63 µg/mL (≈ 153 µM).
In the case of `COc1c(N2C[C@H](CNC3CC3)[C@@H](C)C2)ccc2c(=O)c(C(=O)O)cn(C3CC3)c12` [Example 7, 1-cyclopropyl-7-[(3S,4R)-3-cyclopropylaminomethyl-4-methyl-1-pyrrolidinyl]-1,4-dihydro-8-methoxy-4-oxo-3-quinolinecarboxylic acid], the MIC in the assay on S. pneumoniae Type III came to 63 µg/mL (≈ 153 µM); against S. aureus MR5867 it was 63 µg/mL (≈ 153 µM); in the assay with S. aureus Smith it was 31 µg/mL (≈ 75.3 µM); with E. faecalis IID682, 250 µg/mL (≈ 608 µM); in the assay on S. aureus MS16401, 125 µg/mL (≈ 304 µM).
